This is an account of results in patent US20240391882A1 (Mirati Therapeutics, Inc., priority 2023, published 2024).

Common to all, as to assay type: cell-based
For experiment [1], the system named is T47D (PI3Kα H1047R mutant) cells. The experiment is described as follows: Cell viability (CellTiter-Glo 2.0) in T47D cells. Particulars: Homo sapiens, T47D, 72 h, approximately 72 hours. Here is the method: (§1) This Example illustrates that representative compounds of the invention decrease the viability of cells.
(§2) The ability of a compound of Formula (I) to decrease the viability of cells was measured using CellTiter-Glo 2.0 (CTG) Luminescent Cell Viability Assay (#G9241) obtained from Promega (Madison, WI).
(§3) To prepare assay plates for viability assays, cells were trypsinized, resuspended in fresh media, and viable cells were counted utilizing trypan blue exclusion. T47D, SKBR3, or MKN1 cells were seeded at 1000 cells in 30 μl per well in a solid white flat bottom 384 cell culture plate (Perkin Elmer #6007680) and incubated at 37° C. overnight.
(§4) Assay day 1, cells were dosed using an Echo Liquid Handler (Beckman Coulter) with compounds at a 10 μm starting concentration and serially diluted (1:4) for a total of 10 concentrations. Cells were incubated for approximately 72 hours with the compounds (solubilized in DMSO) at 37° C. After 72 hours of treatment, cell plates were equilibrated to room temperature before adding 15 μl of CTG to each well, plates were then covered in aluminum foil to protect from light, incubated at room temperature for 30 minutes on a microtiter plate shaker, and luminescence readings were collected using a CLARIOstar microplate reader (BMG Labtech, Germany). Percent of vehicle control values were plotted as log(inhibitor) vs. response—Variable slope (four parameters) for curve fitting and IC50 values were determined using XLfit.

Experiment [2] concerns SKBR3 (PI3Kα wild type) cells. Nature of the experiment: Cell viability (CellTiter-Glo 2.0) in SKBR3 cells. Conditions: Homo sapiens, SK-BR-3; SKBR3 (PI3Kα wild type) cells, approximately 72 hours, CellTiter-Glo 2.0; read-out: SKBR3 (WT) Viability IC50. Here is the method:
as §1, §2, §3, §4

Experiment [3] concerns pAKT in T47D (PI3Kα H1047R mutant) cells. Nature of the experiment: Inhibition of pAKT (alphaLISA Surefire Ultra AKT 1/2/3 pS473) in T47D cells. Particulars: Homo sapiens; T47D (PI3Kα H1047R mutant) cells, 24 hr compound incubation, alphaLISA pS473; read-out: T47D (H1047R) pAKT 24 hr (IC50). As for the experimental part:
The ability of a compound of Formula (I) to inhibit the formation of pAKT was measured using alphaLISA Surefire Ultra AKT 1/2/3 (pS473) Assay Kit (#ALSU-PAKT-B50K) was obtained from Perkin Elmer (Waltham, MA).
To prepare assay plates for pAKT alphaLISA assays, cells were trypsinized, resuspended in fresh media, and viable cells were counted utilizing trypan blue exclusion. Prior to seeding, cells were washed with PBS and resuspended in HBSS (Gibco, #14025092). T47D (12,000/w), SKBR3 (12,000/w), or MKN1 (24,000/w) cells were seeded at 12 μl per well in a solid white flat bottom 384 cell culture plate (Perkin Elmer #6007680).
Immediately after seeding, cells were dosed using an Echo Liquid Handler (Beckman Coulter) with compounds at a 10.4 μm starting concentration and serially diluted (1:4) for a total of 10 concentrations. 14 vehicle (DMSO) and 14 positive control (Alpelisib @3.125 μm) wells were included on each assay plate. Cells were incubated with the compounds (solubilized in DMSO) for approximately 24 hours at 37° C. After 24 hours of treatment, cells were lysed with 3 μl of the 5× lysis buffer (provided and incubated at room temperature for 15 min on a microtiter plate shaker). Once cells were sufficiently lysed, 7.5 μl of the acceptor bead mix (made using the manufacturers recommended dilutions) was added to each well and left on the microtiter plate shaker for 1 min prior to incubating plates at room temperature for 1 hour, in the absence of light. After 1 hour of incubation with the acceptor bead mix, 7.5 μl of the donor bead mix (made using the manufacturers recommended dilutions) was added to each well and left on the microtiter plate shaker for 1 min prior to incubating plates at room temperature overnight in the absence of light. Plates were then imaged the following day using a CLARIOstar microplate reader (BMG Labtech, Germany).
Percent of control values were calculated by subtracting the average signal from the positive control (alpelisib) treated wells from all treated wells (including DMSO control wells) and then divided by the average signal from the vehicle DMSO treated control wells. Percent of vehicle control values were plotted as log(inhibitor) vs. response—Variable slope (four parameters) for curve fitting and IC50 values were determined using XLfit.

`CO[C@H]1CCN(c2nc3c([C@@H](C)Nc4ccccc4C(=O)O)cc(C)cc3nc2C#N)C1` (single isomer, unassigned) [Example 72A]: the IC50 was 298 nM in experiment [1] and > 10000 nM in experiment [2].
Consider `Cc1cc([C@@H](C)Nc2ccc(Cl)nc2C(=O)O)c2nc(N3CCC(S(C)(=O)=O)CC3)c(C#N)nc2c1` [Example 106, (R)-6-chloro-3-((1-(2-cyano-7-methyl-3-(4-(methylsulfonyl)piperidin-1-yl)quinoxalin-5-yl)ethyl)amino)picolinic acid], for which the IC50 was 98.1 nM in experiment [1] and > 10000 nM in experiment [2].
On the same counts, the results for `Cc1cc([C@@H](C)Nc2ccc(Cl)nc2C(=O)O)c2nc(N3CC[S+]([O-])CC3)c(C#N)nc2c1` [Example 107, (R)-6-chloro-3-((1-(2-cyano-7-methyl-3-(1-oxidothiomorpholino)quinoxalin-5-yl)ethyl)amino)picolinic acid] are 216 nM and > 10000 nM.
With `Cc1cc([C@@H](C)Nc2ccc(Cl)nc2C(=O)O)c2nc(N3CCC(F)(F)CC3)c(C3CC3)nc2c1` [Example 48, (R)-6-chloro-3-((1-(2-cyclopropyl-3-(4,4-difluoropiperidin-1-yl)-7-methylquinoxalin-5-yl)ethyl)amino)picolinic acid], the half-maximal inhibitory concentration (IC50) in experiment [1] is 95.3 nM; in experiment [2], > 10000 nM.
For `Cc1cc([C@@H](C)Nc2ccccc2-c2nnn[nH]2)c2nc(N3CCOCC3)c(C#N)nc2c1` [Example 852, (R)-5-(1-((2-(1H-tetrazol-5-yl)phenyl)amino)ethyl)-7-methyl-3-morpholinoquinoxaline-2-carbonitrile], the concentration for half-maximal inhibition (IC50) in experiment [1] is 1440 nM; in experiment [2], > 10000 nM.
The corresponding values for `Cc1cc([C@@H](C)Nc2ccc(Cl)nc2-c2nnn[nH]2)c2nc(N3CCOCC3)c(C#N)nc2c1` [Example 854, (R)-5-(1-((6-chloro-2-(1H-tetrazol-5-yl)pyridin-3-yl)amino)ethyl)-7-methyl-3-morpholinoquinoxaline-2-carbonitrile] are 52 nM and 4380 nM.
The corresponding values for `Cc1cc([C@@H](C)Nc2ccccc2C(=O)O)c2nc(N3CCC(F)(F)[C@H](C)C3)c(C#N)nc2c1` [Example 79B, 2-(((R)-1-(2-cyano-3-((R)-4,4-difluoro-3-methylpiperidin-1-yl)-7-methylquinoxalin-5-yl)ethyl)amino)benzoic acid] are 176 nM and > 10000 nM.
On the same counts, the results for `Cc1cc([C@@H](C)Nc2ccc(Cl)nc2C(=O)O)c2nc(N3CCC(F)(F)[C@H](C)C3)c(C#N)nc2c1` [Example 78A, 6-chloro-3-(((R)-1-(2-cyano-3-((R)-4,4-difluoro-3-methylpiperidin-1-yl)-7-methylquinoxalin-5-yl)ethyl)amino)picolinic acid] are 126 nM and 7060 nM.
On to `Cc1cc([C@@H](C)Nc2ccc(Cl)nc2C(=O)O)c2nc(N3CCc4ccccc4C3)c(C#N)nc2c1` [Example 83, (R)-6-chloro-3-((1-(2-cyano-3-(3,4-dihydroisoquinolin-2(1H)-yl)-7-methylquinoxalin-5-yl)ethyl)amino)picolinic acid], for which the half-maximal inhibitory concentration (IC50) is 60.7 nM in experiment [1] and > 10000 nM in experiment [2].
On the same counts, the results for `Cc1cc([C@@H](C)Nc2ccc(Cl)nc2C(=O)O)c2nc(N3CC4CC3C(F)(F)C4)c(C#N)nc2c1` (single isomer, unassigned) [Example 10] are 71.6 nM and > 10000 nM.
The corresponding values for `Cc1cc([C@@H](C)Nc2ccccc2C(=O)O)c2nc(NC3CC(F)(F)C3)c(C#N)nc2c1` [Example 76, (R)-2-((1-(2-cyano-3-((3,3-difluorocyclobutyl)amino)-7-methylquinoxalin-5-yl)ethyl)amino)benzoic acid] are 324 nM and > 10000 nM.
For the compound `Cc1cc([C@@H](C)Nc2ccc(Cl)nc2C(=O)O)c2nc(N3CCC(c4ccnn4C)CC3)c(C#N)nc2c1` [Example 126, (R)-6-chloro-3-((1-(2-cyano-7-methyl-3-(4-(1-methyl-1H-pyrazol-5-yl)piperidin-1-yl)quinoxalin-5-yl)ethyl)amino)picolinic acid], the IC50 in experiment [3] was determined as 0.8 nM; in experiment [1], 24.8 nM.
The corresponding values for `Cc1cc([C@@H](C)Nc2ccc(Cl)nc2C(=O)O)c2nc(N3C[C@@H]4[C@@H](CO)[C@@H]4C3)c(C#N)nc2c1` [Example 167, 6-chloro-3-(((R)-1-(2-cyano-3-((1R,5S,6R)-6-(hydroxymethyl)-3-azabicyclo[3.1.0]hexan-3-yl)-7-methylquinoxalin-5-yl)ethyl)amino)picolinic acid] are 4.6 nM and 150 nM.
As for `Cc1cc([C@@H](C)Nc2ccc(Cl)nc2C(=O)O)c2nc(N3C[C@H]4C[C@@H]3CO4)c(C#N)nc2c1` [Example 174, 3-(((R)-1-(3-((1R,4R)-2-oxa-5-azabicyclo[2.2.1]heptan-5-yl)-2-cyano-7-methylquinoxalin-5-yl)ethyl)amino)-6-chloropicolinic acid], the results for the 50% inhibitory concentration (IC50) in experiment [3] and in experiment [1] were 4.4 nM and 36.6 nM, respectively.
Turning to `Cc1cc([C@@H](C)Nc2ccc(Cl)nc2C(=O)O)c2nc(N3CC[C@H](F)C3)c(C#N)nc2c1` [Example 176, 6-chloro-3-(((R)-1-(2-cyano-3-((S)-3-fluoropyrrolidin-1-yl)-7-methylquinoxalin-5-yl)ethyl)amino)picolinic acid], the 50% inhibitory concentration (IC50) in experiment [3] was determined as 1.7 nM; in experiment [1], 34.5 nM.
On the same counts, the results for `COC[C@@H]1[C@H]2CN(c3nc4c([C@@H](C)Nc5ccc(Cl)nc5C(=O)O)cc(C)cc4nc3C#N)C[C@@H]12` [Example 166, 6-chloro-3-(((R)-1-(2-cyano-3-((1R,5S,6R)-6-(methoxymethyl)-3-azabicyclo[3.1.0]hexan-3-yl)-7-methylquinoxalin-5-yl)ethyl)amino)picolinic acid] are 1.2 nM and 38.6 nM.
For the compound `Cc1cc([C@@H](C)Nc2ccc(Cl)nc2C(=O)O)c2nc(N3C[C@@H]4C[C@H]3CO4)c(C#N)nc2c1` [Example 173, 3-(((R)-1-(3-((1S,4S)-2-oxa-5-azabicyclo[2.2.1]heptan-5-yl)-2-cyano-7-methylquinoxalin-5-yl)ethyl)amino)-6-chloropicolinic acid], the IC50 in experiment [3] was 0.3 nM; in experiment [1], 26.8 nM.
Regarding `Cc1cc([C@@H](C)Nc2ccc(Cl)nc2C(=O)O)c2nc(N3CCC(=O)CC3)c(C#N)nc2c1` [Example 161, (R)-6-chloro-3-((1-(2-cyano-7-methyl-3-(4-oxopiperidin-1-yl)quinoxalin-5-yl)ethyl)amino)picolinic acid], the IC50 stood at 4.6 nM in experiment [3] and 47.6 nM in experiment [1].
The corresponding values for `Cc1cc([C@@H](C)Nc2ccc(Cl)nc2C(=O)O)c2nc(N3CCN(c4ncc(C)s4)CC3)c(C#N)nc2c1` [Example 115, (R)-6-chloro-3-((1-(2-cyano-7-methyl-3-(4-(5-methylthiazol-2-yl)piperazin-1-yl)quinoxalin-5-yl)ethyl)amino)picolinic acid] are 1 nM and 31.3 nM.
The corresponding values for `Cc1cc([C@@H](C)Nc2ccccc2C(=O)O)c2nc(N3CCC4(CC3)C(F)(F)C4(F)F)c(C#N)nc2c1` [Example 129, (R)-2-((1-(2-cyano-7-methyl-3-(1,1,2,2-tetrafluoro-6-azaspiro[2.5]octan-6-yl)quinoxalin-5-yl)ethyl)amino)benzoic acid] are 18.8 nM and 330 nM.
